pEC50: −log10 of the molar value.
Tests used:
[1] = test system: ANGPTL4, a PPARG target gene, in HT1197 (RXRA S427F mutation) cells; assay: Bladder cancer pharmacodynamic assay (HT1197 cell assay, qPCR of PPARG target genes); type: cell-based; conditions: Homo sapiens, 100 nM compound, 24 hours, relative to DMSO control
Protocol: 5637 (PPARG amplified) and HT1197 (RXRA S427F mutation) cells were used for assessment of modulation of PPARG target genes using quantitative PCR. Cells were treated for 24 hours with PPARG inverse agonists prior to analysis of FABP4 (IDT, Cat: Hs.PT 58.20106818) and ANGPTL4 (IDT, Cat: Hs.PT 58.25480012) expression, with expression of the housekeeping gene TBP (IDT, Cat: Hs.PT 58v.39858774) used to normalize expression across samples. Quantitative PCR was performed using an ABI QuantStudio 7 Flex Reaction system. Data were analyzed and reported relative to DMSO control using the comparative Ct method (ΔΔCt).

[2] = molecular target: T1, PPARG/RXRA LBD heterodimer (Homo sapiens, UniProt P37231); assay: PPARγ-NCOR1 recruitment assay (TR-FRET); type: binding; conditions: NCOR1 ID2 peptide, 80 nM Rosiglitazone, 3 hours, read-out: PPARG - NCOR recruitment assay EC50
T1 construct: 2 nM WT PPARG LBD (e. coli expressed, His-TEV-Q203-Y477); fused on or other part: N-terminal His tag with TEV site on the PPARG LBD
Protocol: Compound potency (EC50) and maximal extent of NCOR1 recruitment to PPARG were assessed a TR-FRET binding assay measuring association of a biotinylated NCOR1 ID2 peptide (Biotin-[…]-amide) to PPARG/RXRA LBD heterodimer. Specifically, a 20 microliters of TR-FRET master mix consisting of 2 nM WT PPARG LBD (e. coli expressed, His-TEV-Q203-Y477; Uniprot ID P37231-2), 2 nM WT RXRA LBD or mutant S427F RXRA LBD (e. coli expressed, Flag-TEV-E228-T462; […]. Mixtures were incubated for 3 hours and read in an EnVision plate reader (Perkin Elmer) with Ex/Em 615/665. To determine the potency (EC50) and extent of NCOR1 recruitment, TR-FRET ratios were normalized to the average ratio of DMSO control wells (0%) and to the average maximum ratio for positive control compound (T0070907 (2-chloro-5-nitro-N-4-pyridinyl-benzamide); defined as 100%) in CDD Vault and analyzed using the Levenberg-Marquardt algorithm.
T1 sequence (O75376 2251-2273 limits assumed, one chain of several, further chain): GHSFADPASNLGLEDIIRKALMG

[3] = molecular target: T2, PPARG/RXRA LBD heterodimer (Homo sapiens, UniProt P37231); assay: PPARγ-MED1 blockade assay (TR-FRET); type: binding; conditions: MED1 LxxLL peptide, 80 nM Rosiglitazone, 3 hours
T2 construct: His-TEV-Q203-Y477; Uniprot ID P37231-2; made in house; host or cells: E. coli
T2 sequence (P37231 203-477 isoform P37231-2): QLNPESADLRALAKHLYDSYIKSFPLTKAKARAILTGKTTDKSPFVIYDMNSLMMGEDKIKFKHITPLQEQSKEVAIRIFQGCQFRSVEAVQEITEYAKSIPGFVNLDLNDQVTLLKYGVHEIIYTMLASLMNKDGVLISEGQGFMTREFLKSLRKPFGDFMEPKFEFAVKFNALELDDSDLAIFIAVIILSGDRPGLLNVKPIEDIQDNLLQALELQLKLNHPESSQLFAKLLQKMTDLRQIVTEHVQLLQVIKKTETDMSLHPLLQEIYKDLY
T2 sequence (P19793 228-462 partner limits assumed): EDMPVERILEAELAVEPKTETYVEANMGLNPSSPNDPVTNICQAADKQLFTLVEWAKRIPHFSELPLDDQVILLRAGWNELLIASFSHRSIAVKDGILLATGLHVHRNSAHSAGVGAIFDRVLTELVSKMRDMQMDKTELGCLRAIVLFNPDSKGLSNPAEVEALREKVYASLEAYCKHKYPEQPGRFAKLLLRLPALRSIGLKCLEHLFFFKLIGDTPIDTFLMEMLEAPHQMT
Protocol: Compound potency (IC50) and maximal extent of MED1 repulsion to PPARG were assessed a TR-FRET binding assay measuring association of a biotinylated MED1 LxxLL peptide (Biotin—[…]-amide) to PPARG/RXRA LBD heterodimer. Specifically, a 20 microliters of TR-FRET master mix consisting of 2 nM WT PPARG LBD (e. coli expressed, His-TEV-Q203-Y477; Uniprot ID P37231-2), 2 nM WT RXRA LBD (e. coli expressed, Flag-TEV-E228-T462; […]. Mixtures were incubated for 3 hours and read in an EnVision plate reader (Perkin Elmer) with Ex/Em 615/665. To determine the potency (IC50) and extent of MED1 repulsion, TR-FRET ratios were normalized to the average ratio of DMSO control wells (0%) and to the average minimum ratio for positive control compound (GW9662 (2-chloro-5-nitrobenzanilide); defined as 100%) in CDD Vault and analyzed using the Levenberg-Marquardt algorithm.

Row | Structure (SMILES) | inhibition at 0.1 µM [1] [%] | pEC50 [2] | pEC50 [3]
1 | CS(=O)(=O)c1ccc(C#N)cc1C(=O)Nc1cc(F)cc(C#N)c1 [Example 25, 5-cyano-N-(3-cyano-5-fluorophenyl)-2-(methylsulfonyl) benzamide] | 77 | 6.00 to 7.00 | 6.00 to 7.00
2 | N#Cc1ccc(SC(F)(F)F)c(C(=O)Nc2cc(F)cc(Oc3ccc(Cl)cc3)c2)c1 [Example 26, N-(3-(4-chlorophenoxy)-5-fluorophenyl)-5-cyano-2-((trifluorometh-yl)thio)benzamide] | -160 | 6.00 to 7.00 | 6.00 to 7.00
3 | CN1Cc2ccc(-c3c(F)cc(NC(=O)c4cc(C#N)ccc4SC(F)(F)F)cc3F)cc2C1=O [Example 27, 5-cyano-N-(3,5-difluoro-4-(2-methyl-3-oxoisoindolin-5-yl)phenyl)-2-((trifluorometh-yl)thio)benzamide] | 79 | 6.00 to 7.00 | 6.00 to 7.00
4 | Cn1cc(-c2c(F)cc(NC(=O)c3cc(C#N)ccc3S(C)(=O)=O)cc2F)cn1 [Example 28, 5-cyano-N-(3,5-difluoro-4-(1-methyl-1H-pyrazol-4-yl)phenyl)-2-(methylsulfonyl) benzamide] | 72 | 6.00 to 7.00 | 6.00 to 7.00
5 | Cn1cc(-c2c(F)cc(NC(=O)c3cc(C#N)ccc3SC(F)(F)F)cc2F)cn1 [Example 29, 5-cyano-N-(3,5-difluoro-4-(1-methyl-1H-pyrazol-4-yl)phenyl)-2-((trifluorometh-yl)thio)benzamide] | 65 | 6.00 to 7.00 | 6.00 to 7.00
6 | Cc1cc(NC(=O)c2cc(C#N)ccc2S(C)(=O)=O)cnc1C(F)(F)F [Example 30, 5-cyano-N-(5-methyl-6-(trifluorometh-yl)pyridin-3-yl)-2-(methylsulfonyl) benzamide] | 42 | 5.00 to 6.00 | 5.00 to 6.00
7 | CS(=O)(=O)c1cnc(C#N)cc1C(=O)Nc1cc(F)cc(F)c1 [Example 31, 2-cyano-N-(3,5-difluorophenyl)-5-(methylsulfonyl)isonicotinamide] | 72 | 7.00 to 8.00 | 7.00 to 8.00
8 | CS(=O)(=O)c1cnc(C#N)cc1C(=O)Nc1ccnc(C(F)(F)F)c1 [Example 32, 2-cyano-5-(methylsulfonyl)-N-(2-(trifluoromethyl)py-ridin-4-yl)isonicotinamide] | 80 | 6.00 to 7.00 | 6.00 to 7.00
9 | N#Cc1ccc(S(=O)(=O)CC(F)(F)F)c(C(=O)Nc2cc(F)cc(F)c2)c1 [Example 33, 5-cyano-N-(3,5-difluorophenyl)-2-((2,2,2-trifluoroethyl)sulfonyl)benzamide] | 19 | 5.00 to 6.00 | 5.00 to 6.00
10 | N#Cc1cc(C(=O)Nc2cc(F)cc(F)c2)c(S(=O)(=O)CC(F)(F)F)cn1 [Example 34, 2-cyano-N-(3,5-difluorophenyl)-5-((2,2,2-trifluoroethyl)sulfonyl) isonicotinamide] | 59 | 6.00 to 7.00 | 6.00 to 7.00

From patent US20250197357A1, “PPARG INVERSE AGONISTS AND USES THEREOF” (Flare Therapeutics Inc., priority 2022, published 2025)
